# Reference: PMC7227612 (Clinical cancer research : an official journal of the …, 2009)
# Marks after values point to notes of the source that are not given here.
# Assays:
# [1] = Toxicity and dose limiting toxicity; format: in vivo
# [2] = Steady-state plasma pharmacokinetics, group B; format: in vivo, human; conditions: for Cmax / Tmax: human, plasma, oral; for Cmax: Cmax,ss
# [3] = system: phosphorylated GSK3β (pGSK3β); assay: pGSK3β in patient peripheral blood mononuclear cells; format: in vivo, human
# [4] = Steady-state plasma pharmacokinetics, group A; format: in vivo, human; conditions: for Cav,ss: geometric mean (%CV); for Cmax / Tmax: human, plasma, oral
# [5] = system: GSK3β; assay: Inhibition of GSK3β phosphorylation and activity in glioma cells in vitro; format: cell-based; conditions: Supplementary Fig. S1, concentration dependent
# [6] = system: recurrent malignant glioma; assay: Tumor response; format: in vivo, human
# [7] = system: glioma cells; assay: Cytotoxic activity against glioma cells in vitro; format: cell-based; conditions: Supplementary Fig. S1, concentration dependent
# [8] = Group B, 500 mg twice daily, Patient 2
# [9] = Group B, 1,000 mg daily, Patient 1
# [10] = Group B, 1,000 mg daily, Patient 2
# [11] = 500 mg, Group B, 500 mg twice daily, Patient 2
# [12] = 1000 mg daily, Group B, 1,000 mg daily, Patient 1
# [13] = 1000 mg daily, Group B, 1,000 mg daily, Patient 2
smiles,measurement,setting,value
Cn1cc(C2=C(c3cn(C4CCN(Cc5ccccn5)CC4)c4ccccc34)C(=O)NC2=O)c2ccccc21 [Enzastaurin],Dose-limiting toxicities,"[1]; human, in vivo",thrombocytopenia and prolonged QTc
same,"Elevated ALT, Grade 1-2","[1]; human, in vivo",5 (23%)
same,"Elevated ALT, Grade 3-4","[1]; human, in vivo",1
same,"Elevated AST, Grade 1-2","[1]; human, in vivo",9 (41%)
same,"Elevated AST, Grade 3-4","[1]; human, in vivo",0
same,"Hematuria, Grade 1-2","[1]; human, in vivo",1
same,"Hematuria, Grade 3-4","[1]; human, in vivo",0
same,"Hypermagnesemia, Grade 1-2","[1]; human, in vivo",1
same,"Hypermagnesemia, Grade 3-4","[1]; human, in vivo",0
same,"Intracranial hemorrhage, Grade 1-2","[1]; human, in vivo",0
same,"Intracranial hemorrhage, Grade 3-4","[1]; human, in vivo",0
same,"Nausea, Grade 1-2","[1]; human, in vivo",1
same,"Nausea, Grade 3-4","[1]; human, in vivo",0
same,"Proteinuria, Grade 1-2","[1]; human, in vivo",1
same,"Proteinuria, Grade 3-4","[1]; human, in vivo",0
same,"QTc prolongation, Grade 1-2","[1]; human, in vivo",5 (23%)
same,"QTc prolongation, Grade 3-4","[1]; human, in vivo",2 (9%) ^*
same,Relationship between QTcB changes from baseline and plasma concentrations,"[1]; human, in vivo",no significant relationship
same,"Thrombocytopenia, Grade 1-2","[1]; human, in vivo",6 (27%)
same,"Thrombocytopenia, Grade 3-4","[1]; human, in vivo",5 (23%)
same,Patients with dose limiting grade 3 thrombocytopenia,"[1]; human, in vivo, 6 wk",2
same,"Elevated ALT, Grade 5","[1]; number of patients, N = 22",0
same,"Elevated AST, Grade 5","[1]; number of patients, N = 22",0
same,"Hematuria, Grade 5","[1]; number of patients, N = 22",0
same,"Hypermagnesemia, Grade 5","[1]; number of patients, N = 22",0
same,"Nausea, Grade 5","[1]; number of patients, N = 22",0
same,"Proteinuria, Grade 5","[1]; number of patients, N = 22",0
same,"QTc prolongation, Grade 5","[1]; number of patients, N = 22",0
same,"Thrombocytopenia, Grade 5","[1]; number of patients, N = 22",0
same,"Intracranial hemorrhage, Grade 5","[1]; number of patients, N = 22, in the setting of grade 3 thrombocytopenia",1 ^†
same,CL/F,[2]; [8],27 L/h
same,"Cav,ss",[2]; [8],"3,050 nmol/L"
same,CL/F,[2]; [9],60 L/h
same,"Cav,ss",[2]; [9],"1,340 nmol/L"
same,CL/F,[2]; [10],60 L/h
same,"Cav,ss",[2]; [10],"1,350 nmol/L"
same,Cmax,[2]; [11],4.09 µM
same,Tmax,[2]; [11],4 h
same,Cmax,[2]; [12],3.01 µM
same,Cmax,[2]; [13],2.73 µM
same,Tmax,[2]; [12],4 h
same,Tmax,[2]; [13],2 h
same,pGSK3β levels at steady state vs baseline,[3]; five patients who achieved disease control,decreased from baseline
same,pGSK3β at steady state vs baseline,"[3]; one patient with progressive disease, after the first 3 weeks of therapy",increased
same,Kinetics of pGSK3β in peripheral blood mononuclear cells after administration,"[3]; two patients, Fig. 3B",decrease in a time dependent manner
same,"Cav,ss","[4]; DL 1, 800 mg daily, n = 12","1,130 (89) nmol/L"
same,"Cav,ss","[4]; DL-1, 250 mg twice daily, n = 3","1,040 (124) nmol/L"
same,"Cav,ss","[4]; DL-1, 500 mg daily, n = 5",472 (109) nmol/L
same,Cmax,[4]; 250 mg,1.39 µM
same,Tmax,[4]; 250 mg,6.03 h
same,Cmax,[4]; 400 mg,2.71 µM
same,Tmax,[4]; 400 mg,4.03 h
same,Cmax,[4]; 500 mg,0.979 µM
same,Tmax,[4]; 500 mg,2.08 h
same,Tmax,[4]; 800 mg,4 h
same,Phosphorylation and activity of GSK3β,[5],inhibits
same,Complete response (patients),[6]; 19 patients evaluable,1
same,Partial response (patients),[6]; 19 patients evaluable,1
same,Objective responses,[6]; 19 patients evaluable for radiographic response,11%
same,Median overall survival,[6]; entire study group,5.7 months
same,Median progression-free survival,[6]; entire study group,1.4 months
same,Duration complete response maintained on therapy,"[6]; one patient, Fig. 2",> 3 y
same,Cytotoxicity,[7],direct cytotoxic activity
